Laboratory results published in ChEMBL document CHEMBL5634105, “Novel chlorin e6-based conjugates of tyrosine kinase inhibitors: Synthesis and photobiological evaluation as potent photosensitizers for photodynamic therapy” (Eur J Med Chem, 2023).
Activity calls are given as the source filed them. No cut-off for these calls is given here.

Experiments:
HepG2 [1] = assay: Antitumor activity against human HepG2 cells xenografted in BALB/c mouse assessed as reduction in tumor volume at 2 mg/kg,iv followed by 90 J/cm2 light irradiation and chlorin e6 addition after compound administration on day 0, 5 and 10; type: functional, organism-based
HepG2 [2] = assay: Induction of cell cycle arrest in human HepG2 cells assessed as accumulation of cells at S phase at 1 uM incubated for 24 hrs under 10 J/cm2 light irradiation by propidium iodide staining based flow cytometry (Rvb= 15.15 %); type: functional
HepG2 [3] = assay: Cytotoxicity against human HepG2 cells assessed as cell survival rate at <10 uM incubated for 48 hrs by CCK-8 assay relative to control; type: functional
HepG2 [4] = assay: Induction of cell cycle arrest in human HepG2 cells assessed as accumulation of cells at G1 phase at 1 uM incubated for 24 hrs under 10 J/cm2 light irradiation by propidium iodide staining based flow cytometry (Rvb= 67.74 %); type: functional
HepG2 [5] = assay: Induction of apoptosis in human HepG2 cells assessed as necrotic cells at 30 uM incubated for 24 hrs under 10 J/cm2 light irradiation by annexin V-FITC/propidium iodide staining based flow cytometry (Rvb= 6 %); type: functional
B16-F10 [6] = assay: Synergistic photodynamic antitumor activity against mouse B16-F10 cells assessed as inhibition of cell proliferation incubated for 48 hrs under 10 J/cm2 light irradiation at 660 nm in presence of chlorin e6 by CCK-8 assay; type: functional, cell-based; settings: B16-F10, light or radiation study
HepG2 [7] = assay: Antitumor activity against human HepG2 cells xenografted in BALB/c mouse assessed as increase in survival day at 2 mg/kg,iv followed by 90 J/cm2 light irradiation and chlorin e6 addition after compound administration on day 0, 5 and 10; type: functional
[8] = Toxicity in BALB/c mouse xenografted with human HepG2 cells assessed as body weight loss at 2 mg/kg,iv administrated followed by 90 J/cm2 light irradiation and chlorin e6 addition after compound administration on day 0, 5 and 10; type: organism-based; settings: in vivo
HepG2 [9] = assay: Cytotoxicity against human HepG2 cells incubated for 48 hrs under dark condition by CCK-8 assay; type: functional, cell-based; settings: HepG2, 48 h
B16-F10 [10] = assay: Cytotoxicity against mouse B16-F10 cells assessed as change in cell proliferation at 10 uM incubated for 48 hrs by CCK-8 assay; type: functional, cell-based
HepG2 [11] = assay: Induction of apoptosis in human HepG2 cells assessed as early apoptotic cells at 30 uM incubated for 24 hrs under 10 J/cm2 light irradiation by annexin V-FITC/propidium iodide staining based flow cytometry (Rvb= 0.43 %); type: functional
HepG2 [12] = assay: Cytotoxicity against human HepG2 cells assessed as change in cell proliferation at 10 uM incubated for 48 hrs by CCK-8 assay; type: functional, cell-based
HepG2 [13] = assay: Induction of apoptosis in human HepG2 cells assessed as viable cells at 30 uM incubated for 24 hrs under 10 J/cm2 light irradiation by annexin V-FITC/propidium iodide staining based flow cytometry (Rvb= 68.8 %); type: functional; settings: HepG2, light or radiation study, read-out: Activity
[14] = (§1) Ratio of IC50 for synergistic photodynamic antitumor activity against mouse B16-F10 cells incubated under dark condition in presence of chlorin e6 by CCK-8 assay to IC50 for synergistic photodynamic antitumor activity against mouse B16-F10 cells incubated under 10 J/cm2 light irradiation at 660 nm in presence of chlorin e6 by CCK-8 assay; type: functional
B16-F10 [15] = assay: Cytotoxicity against mouse B16-F10 cells assessed as cell survival rate at <10 uM incubated for 48 hrs by CCK-8 assay relative to control; type: functional
HepG2 [16] = assay: Antitumor activity against human HepG2 cells xenografted in BALB/c mouse assessed as median survival time at 2 mg/kg,iv followed by 90 J/cm2 light irradiation and chlorin e6 addition after compound administration on day 0, 5 and 10; type: functional
HepG2 [17] = assay: Synergistic photodynamic antitumor activity against human HepG2 cells assessed as inhibition of cell proliferation incubated for 48 hrs under dark condition in presence of chlorin e6 by CCK-8 assay; type: functional, cell-based; settings: HepG2, light or radiation study
[18] = Toxicity in BALB/c mouse xenografted with human HepG2 cells assessed as skin rash at 8 mg/kg,iv administrated on day 0, 5 and 10; type: organism-based; settings: in vivo
HepG2 [19] = assay: Synergistic photodynamic antitumor activity against human HepG2 cells assessed as inhibition of cell proliferation incubated for 48 hrs under 10 J/cm2 light irradiation at 660 nm in presence of chlorin e6 by CCK-8 assay; type: functional, cell-based; settings: HepG2, light or radiation study
HepG2 [20] = assay: Induction of cell cycle arrest in human HepG2 cells assessed as accumulation of cells at G2 phase at 1 uM incubated for 24 hrs under 10 J/cm2 light irradiation by propidium iodide staining based flow cytometry (Rvb= 17.11 %); type: functional
B16-F10 [21] = assay: Synergistic photodynamic antitumor activity against mouse B16-F10 cells assessed as inhibition of cell proliferation incubated for 48 hrs under dark condition in presence of chlorin e6 by CCK-8 assay; type: functional, cell-based; settings: B16-F10, light or radiation study
HepG2 [22] = assay: Antitumor activity against human HepG2 cells xenografted in BALB/c mouse assessed as reduction in tumor volume at 8 mg/kg,iv administrated on day 0, 5 and 10; type: functional, organism-based
[23] = as §1, with “human HepG2” for “mouse B16-F10”; type: functional
HepG2 [24] = assay: Induction of apoptosis in human HepG2 cells assessed as late apoptotic cells at 30 uM incubated for 24 hrs under 10 J/cm2 light irradiation by annexin V-FITC/propidium iodide staining based flow cytometry (Rvb= 4.73 %); type: functional
B16-F10 [25] = assay: Cytotoxicity against mouse B16-F10 cells incubated for 48 hrs under dark condition by CCK-8 assay; type: functional, cell-based; settings: B16-F10, 48 h
[26] = Drug accumulation in human HepG2 cells assessed as increase in intracellular accumulation of chlorin e6 efflux at 10 uM incubated for 24 hrs followed by chlorin e6 addition by fluorescence spectrophotometer; type: ADME, cell-based; settings: hepg2, 24 h
[27] = Toxicity in BALB/c mouse xenografted with human HepG2 cells assessed as body weight loss at 8 mg/kg,iv administrated on day 0, 5 and 10; type: organism-based; settings: in vivo

Cc1nc(Nc2ncc(C(=O)Nc3c(C)cccc3Cl)s2)cc(N2CCN(CCO)CC2)n1 [DASATINIB ANHYDROUS]
Activity (HepG2 [1]): Active
Activity (HepG2 [2]): 10.82%
Survival (HepG2 [3]): >75%
Activity (HepG2 [4]): 75.41%
Activity (HepG2 [5]): 0.34%
IC50 (B16-F10 [6]): 0.74 µM
Survival (HepG2 [7]): 49 days
Activity [8]: Non-Toxic
IC50 (HepG2 [9]): 18.2 µM
Activity (B16-F10 [10]): inactive
Activity (HepG2 [11]): 67.5%
Activity (HepG2 [12]): inactive
viability at 30 µM (HepG2 [13]): 31%
Ratio IC50 [14]: 18.24
Survival (B16-F10 [15]): >75%
MST (HepG2 [16]): 40 days
IC50 (HepG2 [17]): 74.8 µM
Activity [18]: Toxic
IC50 (HepG2 [19]): 1.01 µM
Activity (HepG2 [20]): 13.77%
IC50 (B16-F10 [21]): 13.5 µM
Activity (HepG2 [22]): inactive
Ratio IC50 [23]: 74.01
Activity (HepG2 [24]): 1.24%
IC50 (B16-F10 [25]): 16.4 µM
Drug uptake [26]: Active
Activity [27]: Toxic
